# Patent EP2137192B1, “Derivatives of galantamine as pro-drugs for the treatment of human brain diseases” (priority 2008, dated 2009)
# Tests used:
# [1] = galantamine administered as the unmodified drug; cited from earlier work
# [2] = logP (partition coefficient); format: physicochemical; settings: source of the values not stated
# Excerpt: "logP" is defined as the decadic logarithm of the partition coefficient P which is the ratio of […], as the neutral molecule.
# [3] = target: T1, a4ß2 neuronal nicotinic acetylcholine receptor (Homo sapiens, UniProt P17787+P43681); assay: Allosteric potentiation of nAChR in HEK-293 cells, whole-cell patch clamp; format: cell-based; settings: increase in response to acetylcholine, Figure 3
# T1 construct: expressed in transfected cells; host or cells: HEK-293
# T1 sequence (P43681 29-627 limits assumed): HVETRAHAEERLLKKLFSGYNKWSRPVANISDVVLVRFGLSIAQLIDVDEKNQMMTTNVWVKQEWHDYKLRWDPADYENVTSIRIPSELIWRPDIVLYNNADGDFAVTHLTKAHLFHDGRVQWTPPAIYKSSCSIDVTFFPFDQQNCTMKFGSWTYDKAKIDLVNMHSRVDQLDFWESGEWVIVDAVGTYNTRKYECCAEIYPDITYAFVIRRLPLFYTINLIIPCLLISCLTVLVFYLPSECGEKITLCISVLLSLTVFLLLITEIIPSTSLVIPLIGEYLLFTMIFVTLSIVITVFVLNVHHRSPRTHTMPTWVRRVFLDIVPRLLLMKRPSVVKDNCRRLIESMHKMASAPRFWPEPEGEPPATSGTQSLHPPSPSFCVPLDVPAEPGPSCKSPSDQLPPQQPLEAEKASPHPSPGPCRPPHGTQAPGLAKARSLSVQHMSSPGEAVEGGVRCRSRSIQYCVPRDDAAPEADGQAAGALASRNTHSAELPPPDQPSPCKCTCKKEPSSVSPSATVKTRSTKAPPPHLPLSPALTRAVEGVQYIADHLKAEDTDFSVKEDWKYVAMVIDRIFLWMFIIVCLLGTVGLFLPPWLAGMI
# T1 sequence (P17787 26-502): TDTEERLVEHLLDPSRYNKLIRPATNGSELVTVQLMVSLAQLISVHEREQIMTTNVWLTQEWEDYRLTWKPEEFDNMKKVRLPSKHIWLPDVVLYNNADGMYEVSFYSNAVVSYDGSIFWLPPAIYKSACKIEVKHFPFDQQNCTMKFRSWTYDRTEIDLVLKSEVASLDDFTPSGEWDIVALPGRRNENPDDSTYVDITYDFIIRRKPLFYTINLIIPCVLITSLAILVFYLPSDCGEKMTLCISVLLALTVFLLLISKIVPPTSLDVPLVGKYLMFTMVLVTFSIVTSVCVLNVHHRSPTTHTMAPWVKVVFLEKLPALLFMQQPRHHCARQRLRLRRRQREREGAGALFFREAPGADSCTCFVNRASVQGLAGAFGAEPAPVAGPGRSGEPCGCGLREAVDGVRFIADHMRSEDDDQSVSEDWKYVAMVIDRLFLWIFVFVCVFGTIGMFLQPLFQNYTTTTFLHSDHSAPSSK
# Description: (§1) 1983;91:49-60. […] Butyrylcholinesterase, 25 units/ml, was used. Reaction temperature was 37°C.
# Investigation of the allosteric modulation effect of drug candidates on nicotinic acetylcholine receptors (nAChRs) expressed in HEK-293 cells by electrophysiology. Results shown as figure 3
# Single HEK-293 cells expressing either human α4β2, human α3β4, or chimeric chicken α7 (with mouse 5HT3) nAChR were plated on fibronectin-coated cover slips for 3 days before measurement. The selected nAChR containing cells were placed in the recording bath, filled with extracellular buffer (145 mM NaCl, 5 mM KCl, 1 mM MgCl2, 2 mM CaCl2, 10 mM D-glucose, 10 mM HEPES, pH 7.3, approximately 300 mOsm). […] A programmable puller (Sutter, USA) was used to prepare a twin pair of ready for use pipettes. […] 1, 5, 10, 50, 100, 500, 1,000, 5,000 and 10,000 nM, and solutions were applied to the cell surface during 500 ms pulses through the U-tube, and then corresponding currents, digitized to 10 kHz, were recorded for 10 s. […] The averaged peak amplitudes of the currents, measured in the presence of selected compound concentrations, were compared with those determined in the absence of compounds (control) and they were calculated as % of control. […]
# [4] = in vivo; settings: for Co (Brain), highest pro-galantamine concentration achieved in mouse brain: i.v. injection of 3 mg/kg, for Gal: galantamine after the same amount of galantamine; for Kp: in vivo
# Description: In table 1, the key pharmacokinetic data of benzoyl-galantamine, of several other R1-pro-galantamines and of galantamine (for comparison) are listed. Table 1: Pharmacokinetic data of several R1-pro-galantamines in the mouse
# Co is the highest pro-galantamine concentration (ng/ml) achieved in mouse brain after i.v. injection of 3 mg/kg of pro-galantamine. R-Pro ist he brain-to-blood concentration ratio of pro-galantamine, R-Gal that of galantamine under these experimental conditions. For comparison, Co and R-Gal are also provided for i.v. injection of the same amount of galantamine.
# • Figure 1: Brain esterase inhibition by galantamine and several pro-galantamines. A 20% mouse brain homogenate was used, supplemented with 200 µM of acetylthiocholine as substrate, and the initial reaction kinetics were measured according to Riddles PW, Blakeley RL, Zerner B., "Reassessment of Ellman's reagent." Methods Enzymol. 1983;91:49-60. […] In derivative Gln 1063 R1 in formula I is -O-Si(CH3)2-C(CH3)2-C(CH3)2H. • Figure 2: Enzymatic cleavage of pro-galantamine to galantamine. Butyrylcholinesterase, 25 units/ml, was used. Reaction temperature was 37°C. Appearance of the fluorescent reaction product galantamine was determined by fluorescence detection. • Figure 3: Interaction of galantamine and pro-galantamine with a4ß2 neuronal nicotinic acetylcholine receptor ectopically expressed in HEK-293 cells. The increase in response to acetylcholine in the presence of galantamine and Gln-1062, respectively, was determined by whole-cell patch clamp recording. […] Scopolamine induces a memory deficit that can be measured by […] alternation in a T-maze trial. The cognition enhancing drugs were i.p. injected at several different doses together with scopolamine 20 min before a T-maze trial. Recovery was measured as a function of dose, and the EC50 was determined for each drug.
# Determination of the pharmacokinetic profiles of Gln-1062 and its cleavage product galantamine in blood and brain. Determine the brain-to-blood concentration ratios of Gln-1062 and its cleavage product galantamine, and assess the blood-brain barrier penetration capacities.
# Blood samples were collected from the retro-orbital plexus. 0.5 ml of blood was collected into a pre-labeled polypropylene micro centrifuge tube containing sodium citrate as the anticoagulant, and kept on ice.
# Immediately after blood withdrawal, brain was perfused with phosphate buffer saline (pH 7.4), removed and frozen on dry ice.
# Brain samples were thawed on ice and weighed. An appropriate volume ice cold homogenizing media (methanol: water::20:80,v/v) added. On ice, homogenized the brain sample with the polytron homogenizer and make up the volume with homogenizing media to get 1 gm of brain per 4 mL of homogenate. After homogenizing, immediately freezed the brain homogenate samples at -80°C until analysis.
# [5] = target: T2, brain cholinesterase (Mus musculus, UniProt P21836); assay: Inhibition of brain esterase, modified Ellman test in mouse brain homogenate; format: biochemical; settings: 20% mouse brain homogenate, 200 µM acetylthiocholine; Figure 1
# T2 construct: from tissue; host or cells: mouse brain homogenate
# T2 sequence (P21836 32-614): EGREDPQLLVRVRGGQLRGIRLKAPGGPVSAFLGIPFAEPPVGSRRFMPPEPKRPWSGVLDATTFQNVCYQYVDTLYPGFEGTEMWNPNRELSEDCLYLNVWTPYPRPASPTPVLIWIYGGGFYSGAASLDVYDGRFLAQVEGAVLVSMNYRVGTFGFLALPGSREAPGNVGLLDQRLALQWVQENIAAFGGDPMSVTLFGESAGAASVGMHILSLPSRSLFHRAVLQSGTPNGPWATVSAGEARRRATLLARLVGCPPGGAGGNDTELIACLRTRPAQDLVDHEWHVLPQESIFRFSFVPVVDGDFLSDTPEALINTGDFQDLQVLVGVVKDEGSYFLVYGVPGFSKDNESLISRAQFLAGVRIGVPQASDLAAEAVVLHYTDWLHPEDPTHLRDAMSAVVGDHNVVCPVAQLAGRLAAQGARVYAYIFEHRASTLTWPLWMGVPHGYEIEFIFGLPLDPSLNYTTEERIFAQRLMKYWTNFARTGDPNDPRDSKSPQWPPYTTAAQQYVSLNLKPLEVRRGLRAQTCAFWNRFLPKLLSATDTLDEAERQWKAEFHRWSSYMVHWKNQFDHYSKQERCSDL
# Description: as §1
# The brain is removed from the animal (mouse), shock frozen in liquid nitrogen and stored at minus 80°C until use. Before preparing the extract, the frozen brain is thawed on ice and the weight is determined. Ice cold buffer (130 mM NaCl, 5 mM KCl, 2.5 mM CaCl2, 1 mM MgCl2, 5 mM Glucose, 5 mM HEPES, pH 7.4) is added to the thawed mouse brain (1:4, weight to volume, resulting in a 20 % brain homogenate). The tissue is then homogenized in a potter homogeniser on ice, moving the piston up and down 11 times at 240 rpm. The freshly prepared mouse brain homogenate is divided into aliquots.
# A modified Ellmann's esterase test is used. Briefly the method relies on the cleavage of the substrate acetylthiocholine to acetate and thiocholine. […] The inhibition is expressed as per cent of the non inhibited reaction according to following equation: % Inhibition = 100*(1-(Slopeinhibited/Slopenoninhibited)). […]
# [6] = Reversal from scopolamine-induced amnesia in mice (T-maze alternation); format: in vivo; settings: i.p., Figure 6
# Description: as §1
# Gln 1062, Gln 0979 and galanthamine were dissolved in 15% -hydroxypropyl-β-cyclodextrin in 96 mM NaCl (isotonic) supplied by the sponsor. Gln 1062 and Gln 0979 were used in concentrations of […], 0.03, 0.1 and 0.2 mg/ml, which when given in a volume of 10 ml/kg result in doses of 0.1, 0.3, 1 and 2 mg/kg i.p., respectively. Galanthamine was used in concentrations of 0.03, 0.1, 0.2 and 0.5 mg/ml, which when given in a volume of 10 ml/kg result in doses of 0.3, 1, 2 and 5 mg/kg i.p., respectively. Control animals received 15% -hydroxypropyl-β-cyclodextrin in 96 mM NaCl injection as a vehicle. […]
# The potential cognitive enhancing property of Gln 1062, Gln 0979 and galanthamine were evaluated in scopolamine-treated mice in the T-maze alternation model under the same experimental conditions. […]
# Memory performance was assessed by the percentage of spontaneous alternation in the T-maze. […]
# The percentage of alternation over the 14 free-choice trials was determined for each mouse and was used as an index of working memory performance. […]
# Analysis of variance (ANOVA) was performed on the result data. […] The drug induced reversion of scopolamine-induced memory deficit was calculated by setting the respective response of the saline/vehicle group as 100% and the scopolamine/vehicle group as 0% reversion. […]
SMILES,brain-to-plasma ratio [1],logP [2],maximal enhancement of response [3],"Co (Brain), highest pro-galantamine concentration achieved in mouse brain [4] [ng/mL]",Kp ([4]; mouse),"Kp ([4]; mouse, iv, 3 mg/kg)",inhibition of brain esterase [5],brain-to-blood concentration ratio (RBB-proGal) ([4]; mice),"concentration in blood at start of curve ([4]; mouse blood, 3mg/kg, Figure 4b)","R-Pro, brain-to-blood concentration ratio of pro-galantamine ([4]; mouse, i.v. 3 mg/kg of pro-galantamine)","R-Gal, brain-to-blood concentration ratio of galantamine ([4]; mouse, i.v. 3 mg/kg of pro-galantamine, for Gal: same amount of galantamine)",efficacy in reversing scopolamine-induced amnesia relative to galantamine [6]
"COc1ccc2c3c1O[C@H]1C[C@@H](O)C=C[C@@]31CCN(C)C2 [Gal, galantamine]",~ 1.3,1.7,~ 40%,1741,~1.3,1.2,,,,,,
"COc1ccc2c3c1O[C@H]1C[C@@H](OC(=O)c4ccccc4)C=C[C@@]31CCN(C)C2 [Gln 1062, (4aS,6R,8aS)-4a,5,9,10,11,12-Hexahydro-3-methoxy-11-methyl-6H-benzofuro[3a,3,2-ef][2]benzazepin-6-ol, benzoate (ester)]",,3,~ 17%,4812,,,"little, if any cholinesterase inhibitory activity",> 19,about 0.3 µg/g,19.3,2.2,approximately 4 times
